We go through 22 compounds from patent publication US9249163B2, “PDE10a inhibitors for the treatment of type II diabetes” (Janssen Pharmaceutica, NV, priority 2013, dated 2016).

Structures are written as SMILES. Structures can show the parent of a compound that is named as a salt.

For test [1], the target named is Rat recombinant PDE10a (rPDE10a) (Rattus norvegicus (Rat), UniProt Q9QYJ6). The test is described as follows: In vitro assay PDE10a (rat recombinant PDE10a, SPA). The class given is biochemical. As to conditions: 60 nM cAMP, 60 min at rt, read-out: rPDE10a2 IC50. As to the method:
Rat recombinant PDE10a (rPDE10a) was expressed in Sf9 cells using a recombinant rPDE10a baculovirus construct. Cells were harvested after 48 h of infection and the rPDE10a protein was purified by metal chelate chromatography on Ni-sepharose 6FF. Tested compounds were dissolved and diluted in 100% DMSO to a concentration 100 fold of the final concentration in the assay. Compound dilutions (0.4 μL) were added in 384 well plates to 20 μL of incubation buffer (50 mM Tris pH 7.8, 8.3 mM MgCl2, 1.7 mM EGTA). 10 μL of rPDE10a enzyme in incubation buffer was added and the reaction was started by addition of 10 μL substrate to a final concentration of 60 nM cAMP and 0.008 μCi ^3H-cAMP. The reaction was incubated for 60 min at rt. After incubation, the reaction was stopped with 20 μL of 17.8 mg/mL PDE SPA beads. After sedimentation of the beads during 30 min the radioactivity was measured in a Perkin Elmer Topcount scintillation counter and results were expressed as cpm. For blank values the enzyme was omitted from the reaction and replaced by incubation buffer. Control values were obtained by addition of a final concentration of 1% DMSO instead of compound.

The target of test [2] is Human recombinant PDE10A2 (Homo sapiens (Human), UniProt Q9Y233). The test is described as follows: In vitro hPDE10a (human recombinant PDE10A2, scintillation proximity assay). The class given is biochemical. The note with it: human recombinant PDE10A2, 60 nM cAMP, 60 min at room temperature; read-out: hPDE10a2 IC50. As to the method: Human recombinant PDE10A2 was expressed in Sf9 cells, using a recombinant baculovirus construct containing the full length sequence containing a 6×His sequence following the start Met to allow metal affinity purification of the recombinant protein. Cells were harvested and the phosphodiesterase protein was purified by metal chelate chromatography on Ni-sepharose 6FF.
Sequence of Human recombinant PDE10A2 (Q9Y233 267-1055): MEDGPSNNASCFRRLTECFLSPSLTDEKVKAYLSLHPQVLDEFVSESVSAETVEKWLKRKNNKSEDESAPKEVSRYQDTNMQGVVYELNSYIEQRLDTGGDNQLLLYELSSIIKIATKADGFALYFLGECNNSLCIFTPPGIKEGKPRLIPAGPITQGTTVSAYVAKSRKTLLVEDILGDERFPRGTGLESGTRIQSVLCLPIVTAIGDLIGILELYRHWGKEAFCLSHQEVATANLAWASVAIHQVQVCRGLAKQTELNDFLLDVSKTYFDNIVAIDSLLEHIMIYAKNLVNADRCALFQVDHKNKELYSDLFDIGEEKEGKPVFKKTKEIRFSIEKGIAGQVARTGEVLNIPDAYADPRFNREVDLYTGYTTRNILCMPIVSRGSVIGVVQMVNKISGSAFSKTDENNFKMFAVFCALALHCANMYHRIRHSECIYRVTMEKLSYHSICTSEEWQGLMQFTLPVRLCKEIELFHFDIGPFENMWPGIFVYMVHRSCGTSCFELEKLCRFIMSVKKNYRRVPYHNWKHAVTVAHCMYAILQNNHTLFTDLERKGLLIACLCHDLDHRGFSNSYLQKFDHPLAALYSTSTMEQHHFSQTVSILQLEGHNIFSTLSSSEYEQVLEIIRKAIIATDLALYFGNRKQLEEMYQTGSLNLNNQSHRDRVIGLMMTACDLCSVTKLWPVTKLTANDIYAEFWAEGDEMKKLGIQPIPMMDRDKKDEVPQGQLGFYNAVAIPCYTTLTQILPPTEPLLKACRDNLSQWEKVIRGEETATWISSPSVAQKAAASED
The affinity of the compounds of Formula (I) for phophodiesterases (PDE) was measured by a scintillation proximity assay (SPA). PDE Yttrium Silicate SPA beads allow PDE activity to be measured by direct binding of the primary phosphate groups of non-cyclic AMP or GMP to the beads via a complex iron chelation mechanism. The amount of bound tritiated product ([^3H]-AMP) is measured by liquid scintillation counting.
The compounds were dissolved and diluted in 100% DMSO in polystyrene plates to a concentration of 100-fold the final concentration in the assay. Human PDE10A enzyme solution (10 μL) was added to 20 μL, of incubation buffer (50 mM Tris pH 7.8, 8.3 mM MgCl2, 1.7 mM EGTA), 10 μL, substrate solution consisting of a mixture of non-tritiated and tritiated substrate (60 nM cAMP, 0.008 μCi ^3H-cAMP), and 0.4 μL, compound in 100% DMSO in a 384-well plate, and incubated for 60 min at room temperature. After incubation, the reaction was stopped with 20 μL, of stop solution, consisting of PDE SPA beads (17.8 mg beads/mL in 18 mM zinc sulphate). After sedimentation of the beads for 30 min, the radioactivity was measured in a Perkin Elmer Topcount scintillation counter and results were expressed as cpm. To measure the low control, no enzyme was added to the reaction mixture.
Data were calculated as the percentage of inhibition of total activity measured in the absence of test compound (% control).
(In general: In a scintillation proximity assay essentially only radioactivity close to the scintillant gives light.)

Sequence of Rat recombinant PDE10a (rPDE10a) (Q9QYJ6 whole entry): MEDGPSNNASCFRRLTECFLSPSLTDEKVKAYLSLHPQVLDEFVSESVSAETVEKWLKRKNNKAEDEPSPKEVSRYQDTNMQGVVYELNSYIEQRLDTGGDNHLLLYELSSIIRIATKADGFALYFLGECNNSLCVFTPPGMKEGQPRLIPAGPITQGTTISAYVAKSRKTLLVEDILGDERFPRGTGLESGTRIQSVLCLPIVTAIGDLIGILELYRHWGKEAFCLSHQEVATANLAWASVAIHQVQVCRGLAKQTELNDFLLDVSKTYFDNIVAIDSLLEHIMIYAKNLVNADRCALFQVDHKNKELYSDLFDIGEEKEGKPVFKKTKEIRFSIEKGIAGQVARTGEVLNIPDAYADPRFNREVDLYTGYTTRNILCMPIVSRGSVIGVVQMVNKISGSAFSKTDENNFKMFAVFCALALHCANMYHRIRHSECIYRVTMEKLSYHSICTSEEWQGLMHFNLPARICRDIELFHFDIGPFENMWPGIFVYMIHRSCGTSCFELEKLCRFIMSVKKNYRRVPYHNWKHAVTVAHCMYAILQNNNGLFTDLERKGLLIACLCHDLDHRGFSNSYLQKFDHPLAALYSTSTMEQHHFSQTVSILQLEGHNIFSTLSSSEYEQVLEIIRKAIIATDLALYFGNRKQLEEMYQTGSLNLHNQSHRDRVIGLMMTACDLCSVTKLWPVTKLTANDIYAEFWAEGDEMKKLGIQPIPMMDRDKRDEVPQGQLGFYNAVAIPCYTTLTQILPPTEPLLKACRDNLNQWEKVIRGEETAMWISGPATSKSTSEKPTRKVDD

One may read the IC50 as the point on the concentration scale where inhibition reaches its midpoint. As for `Oc1nc2ncc(-c3cnc(N4CCOCC4)c4nc(CCc5ccc6ccccc6n5)cn34)cc2[nH]1` [Cpd 79, 6-(8-Morpholino-2-(2-(quinolin-2-yl)ethyl)imidazo[1,2-a]pyrazin-5-yl)-1H-imidazo[4,5-b]pyridin-2-ol], the IC50 in test [1] came to 33 nM; in test [2], 7 nM.

On to `c1ccc2nc(OCc3cn4c(-c5ccc(N6CCNCC6)nc5)cnc(N5CCOCC5)c4n3)ncc2c1` [Cpd 124, 4-(5-(6-(Piperazin-1-yl)pyridin-3-yl)-2-((quinazolin-2-yloxy)methyl)imidazo[1,2-a]pyrazin-8-yl)morpholine trifluoroacetic acid salt], for which the IC50 in test [1] stood at 123 nM; in test [2], 115 nM. For `CN(C)c1ccc(-c2cnc(N3CCOCC3)c3nc(COc4ccc5ccccc5n4)cn23)cn1` [Cpd 127, N,N-Dimethyl-5-(8-morpholino-2-((quinolin-2-yloxy)methyl)imidazo[1,2-a]pyrazin-5-yl)pyridin-2-amine methane sulfonic acid salt], in that order: 30 nM and 62 nM. The matching figures for `c1ccc2nc(OCc3cn4c(-c5ccc(C6CCNCC6)nc5)cnc(N5CCOCC5)c4n3)ccc2c1` [Cpd 106, 4-(5-(6-(Piperidin-4-yl)pyridin-3-yl)-2-((quinolin-2-yloxy)methyl)imidazo[1,2-a]pyrazin-8-yl)morpholine trifluoroacetic acid salt]: 15 nM and 89 nM.

Regarding `O=c1[nH]ncn1-c1ccc(-c2cnc(N3CCOCC3)c3nc(CCc4ccc5ccccc5n4)cn23)cc1` [Cpd 65, 4-(4-(8-Morpholino-2-(2-(quinolin-2-yl)ethyl)imidazo[1,2-a]pyrazin-5-yl)phenyl)-1H-1,2,4-triazol-5(4H)-one], the 50% inhibitory concentration (IC50) in test [1] turned out to be 60 nM; in test [2], 38 nM. For `O=C(O)Cn1cc(-c2cnc(N3CCOCC3)c3nc(C#Cc4ccc5ccccc5n4)cn23)cn1` [Cpd 9, 2-(4-(8-Morpholino-2-(quinolin-2-ylethynyl)imidazo[1,2-a]pyrazin-5-yl)-1H-pyrazol-1-yl)acetic acid], in that order: 2 nM and 1 nM. The matching figures for `O=C(O)c1ccc(-c2cnc(N3CCOCC3)c3nc(/C=C/c4ccc5ccccc5n4)cn23)nc1` [Cpd 6, (E)-6-(8-morpholino-2-(2-(quinolin-2-yl)vinyl)imidazo[1,2-a]pyrazin-5-yl)nicotinic acid hydrochloric acid salt]: 14 nM and 12 nM. For `NS(=O)(=O)c1ccc(-c2cnc(N3CCOCC3)c3nc(COc4ccc5ccccc5n4)cn23)cn1` [Cpd 86, 5-(8-Morpholino-2-((quinolin-2-yloxy)methyl)imidazo[1,2-a]pyrazin-5-yl)pyridine-2-sulfonamide trifluoroacetic acid salt], the IC50 in test [1] was determined as 16 nM; in test [2], 14 nM. The matching figures for `c1ccc2nc(SCc3cn4c(-c5ccc(N6CCNCC6)nc5)cnc(N5CCOCC5)c4n3)ccc2c1` [Cpd 98, 4-(5-(6-(piperazin-1-yl)pyridin-3-yl)-2-((quinolin-2-ylthio)methyl)imidazo[1,2-a]pyrazin-8-yl)morpholine trifluoroacetic acid salt]: 52 nM and 58 nM.

In the case of `Clc1c(N2CC(c3ccc4ccccc4n3)C2)nc2c(N3CCOCC3)ncc(-c3ccc(N4CCNCC4)nc3)n12` [Cpd 132, 4-(3-Chloro-5-(6-(piperazin-1-yl)pyridin-3-yl)-2-(3-(quinolin-2-yl)azetidin-1-yl)imidazo[1,2-a]pyrazin-8-yl)morpholine trifluoroacetic acid salt], the IC50 in test [1] amounted to 871 nM; in test [2] it was 1620 nM. For `CN1C(=O)Nc2ccc(-c3cnc(N4CCOCC4)c4nc(/C=C/c5ccc6ccccc6n5)cn34)cc2S1(=O)=O` [Cpd 19, (E)-2-Methyl-7-(8-morpholino-2-(2-(quinolin-2-yl)vinyl)imidazo[1,2-a]pyrazin-5-yl)-2H-benzo[e][1,2,4]thiadiazin-3(4H)-one 1,1-dioxide], in that order: 15 nM and 18 nM. The matching figures for `O=C(O)c1ccc(-c2cnc(N3CCOCC3)c3nc(CCc4ccc5ccccc5n4)cn23)cc1` [Cpd 17, 4-(8-Morpholino-2-(2-(quinolin-2-yl)ethyl)imidazo[1,2-a]pyrazin-5-yl)benzoic acid trifluoroacetic acid salt]: 3 nM and 3 nM. For `CC(=O)N1CCN(c2ncc(-c3ccc(N4CCNCC4)nc3)n3cc(COc4ccc5ccccc5n4)nc23)CC1` [Cpd 113], in that order: 151 nM and 224 nM.

`O=C(O)c1ccc(-c2cnc(N3CCOCC3)c3nc(C#Cc4ccccn4)cn23)cc1` [Cpd 10, 4-(8-Morpholino-2-(pyridin-2-ylethynyl)imidazo[1,2-a]pyrazin-5-yl)benzoic acid]: the results for the IC50 in test [1] and in test [2] were 16 nM and 12 nM, respectively. The matching figures for `O=C(O)CCNc1ccc(-c2cnc(N3CCOCC3)c3nc(/C=C/c4ccc5ccccc5n4)cn23)cc1` [Cpd 22, (E)-3-(4-(8-Morpholino-2-(2-(quinolin-2-yl)vinyl)imidazo[1,2-a]pyrazin-5-yl)phenylamino)propanoic acid trifluoroacetic acid salt]: 9 nM and 9 nM. As to `CS(=O)(=O)NC(=O)c1cncc(-c2cnc(N3CCOCC3)c3nc(/C=C/c4ccc5ccccc5n4)cn23)c1` [Cpd 25, (E)-N-(Methylsulfonyl)-5-(8-morpholino-2-(2-(quinolin-2-yl)vinyl)imidazo[1,2-a]pyrazin-5-yl)nicotinamide], the half-inhibitory concentration (IC50) in test [1] stood at 3 nM; in test [2], 2 nM.

Take `OC1CCN(c2ncc(-c3ccc(N4CCNCC4)nc3)n3cc(COc4ccc5ccccc5n4)nc23)CC1` [Cpd 118, 1-(5-(6-(Piperazin-1-yl)pyridin-3-yl)-2-((quinolin-2-yloxy)methyl)imidazo[1,2-a]pyrazin-8-yl)piperidin-4-ol trifluoroacetic acid salt]: the values for the IC50 in test [1] and in test [2] were 30 nM and 78 nM, respectively. The matching figures for `CS(=O)(=O)NC(=O)c1ccc(-c2cnc(N3CCOCC3)c3nc(CSc4ccc5ccccc5n4)cn23)cc1` [Cpd 12, N-(Methylsulfonyl)-4-(8-morpholino-2-((quinolin-2-ylthio)methyl)imidazo[1,2-a]pyrazin-5-yl)benzamide]: 4 nM and 2 nM. The matching figures for `NS(=O)(=O)c1ccc(-c2cnc(N3CCOCC3)c3nc(COc4ccc5ccccc5n4)cn23)cc1` [Cpd 87, 4-(8-Morpholino-2-((quinolin-2-yloxy)methyl)imidazo[1,2-a]pyrazin-5-yl)benzenesulfonamide]: 2 nM and 1 nM. The matching figures for `COC1CCN(c2ncc(-c3ccc(N4CCNCC4)nc3)n3cc(COc4ccc5ccccc5n4)nc23)CC1` [Cpd 112, 2-((8-(4-Methoxypiperidin-1-yl)-5-(6-(piperazin-1-yl)pyridin-3-yl)imidazo[1,2-a]pyrazin-2-yl)methoxy)quinoline trifluoroacetic acid salt]: 95 nM and 89 nM. As for `CS(=O)(=O)NC(=O)c1ccc(-c2cnc(N3CCOCC3)c3nc(CCc4ccc5ccccc5n4)cn23)cc1` [Cpd 61, N-(Methylsulfonyl)-4-(8-morpholino-2-(2-(quinolin-2-yl)ethyl)imidazo[1,2-a]pyrazin-5-yl)benzamide hydrochloric acid salt], in test [1], the IC50 amounted to 6 nM. The same measure, in the same setting: the same measure for `CS(=O)(=O)NC(=O)c1ccc(-c2cnc(N3CCOCC3)c3nc(/C=C/c4ccc5ccccc5n4)cn23)cc1` [Cpd 62, (E)-N-(Methylsulfonyl)-4-(8-morpholino-2-(2-(quinolin-2-yl)vinyl)imidazo[1,2-a]pyrazin-5-yl)benzamide hydrochloric acid salt]: 16 nM.
